# In patent EP0626016B1, “[…] […]” (BRITISH TECHNOLOGY GROUP LIMITED, priority 1992, dated 1993):
# Where two headings read alike, the source gives them in different places.
# Assays:
# HRP [1] = molecular target: T1, HRP (Armoracia rusticana, UniProt P00433); assay: PIBA enhancement of the HRP-luminol-peroxide reaction (Example 7); assay type: biochemical, horseradish; conditions: for Signal: Background ratio: at 1 minute
# T1 construct: purchased Sigma Chemical Co
# T1 sequence (P00433 31-338): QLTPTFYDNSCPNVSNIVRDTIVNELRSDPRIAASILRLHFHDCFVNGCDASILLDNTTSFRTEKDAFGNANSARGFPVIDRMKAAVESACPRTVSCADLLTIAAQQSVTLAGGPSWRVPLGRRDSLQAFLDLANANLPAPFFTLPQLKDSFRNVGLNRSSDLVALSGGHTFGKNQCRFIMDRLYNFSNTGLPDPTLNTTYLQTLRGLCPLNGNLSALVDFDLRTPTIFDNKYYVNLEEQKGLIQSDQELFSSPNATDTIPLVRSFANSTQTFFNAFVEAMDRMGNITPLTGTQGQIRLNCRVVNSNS
# Procedure: PBBA was added in various concentrations (range 0.05µg to 0.5µg) to a luminol-H2O2 reaction in the presence and absence of HRP. The luminol-hydrogen peroxide reagent was prepared as follows: sodium luminol (12.5mg) was dissolved in 50ml of Tris buffer (0.1mol/l, pH 8.6), and 15.5µl of hydrogen peroxide (30% w/v) was mixed with 0.5ml of Tris buffer (0.lmol/l, pH 8.6). These two solutions were combined and protected from light. The luminol-hydrogen peroxide reagent (100µl of a 1:10 dilution) was added to a cuvette together with either 10µl of HRP Type VI A (HRP, Sigma Chemical Co., 1:50,000 dilution) or as a control 10µl of Tris Buffer (0.1mol/l, pH 8.6), and various amounts of PBBA (Aldrich Chemical Co.), range 0.05µg-0.5µg in 0.1mol/l Tris, pH 8.6). […]
# The experiment of Example 1 was repeated using PIBA in place of PBBA. Various dilutions of PIBA (Cookson Chemicals Ltd., Southampton, UK, 1mg/ml stock in DMSO) in Tris buffer were used. […]
# HRP [2] = molecular target: T1, HRP; assay: CPA as enhancer of the luminol-H2O2-HRP reaction, Amerlite microplate reader (Example 9); assay type: biochemical, horseradish
# Procedure: PBBA was added in various concentrations (range 0.05µg to 0.5µg) to a luminol-H2O2 reaction in the presence and absence of HRP. The luminol-hydrogen peroxide reagent was prepared as follows: sodium luminol (12.5mg) was dissolved in 50ml of Tris buffer (0.1mol/l, pH 8.6), and 15.5µl of hydrogen peroxide (30% w/v) was mixed with 0.5ml of Tris buffer (0.lmol/l, pH 8.6). These two solutions were combined and protected from light. The luminol-hydrogen peroxide reagent (100µl of a 1:10 dilution) was added to a cuvette together with either 10µl of HRP Type VI A (HRP, Sigma Chemical Co., 1:50,000 dilution) or as a control 10µl of Tris Buffer (0.1mol/l, pH 8.6), and various amounts of PBBA (Aldrich Chemical Co.), range 0.05µg-0.5µg in 0.1mol/l Tris, pH 8.6). The reagents were mixed and the light emission recorded after 5 minutes on a Berthold Biolumat LB9500C.
# The experiment of Example 1 was repeated using CPA in place of PBBA. Various dilutions of CPA (Cookson Chemicals Ltd., Southampton, UK, […] in 1 mg/ml Tris buffer, pH 8.6) were used. […] "Amerlite" is a Registered Trade Mark.
# HRP Type VIA [3] = molecular target: T2, HRP Type VIA (Armoracia rusticana, UniProt P00433); assay: Effect of organoboron compounds on the luminol-hydrogen peroxide-HRP chemiluminescent reaction (Example 2); assay type: biochemical, horseradish; parameters: purchased Sigma Chemical Co; conditions: test
# T2 sequence (P00433 31-338): T1 sequence (P00433 31-338)
# Procedure: The stock solution of HRP Type VIA (1mg/ml) and luminol-hydrogen peroxide reagent were prepared as described previously. Luminol-hydrogen peroxide (100µl, 1:10 dilution) was mixed with either 10µl of HRP (1:50,000 dilution) or, 10µl of Tris buffer (0.1mol/l, pH 8.6). […] A control without any test compound was run in parallel.
# The control consisted of buffer in place of the compound under test as an enhancer. […]
# HRP Type VIA [4] = molecular target: T2, HRP Type VIA; conditions: 10µl test compound; for (d) Signal: Background: ratio (control = with no enhancer): control value in brackets not reported
compound,measurement,setting,value
"OB(O)c1ccc(I)cc1 [PIBA, para-iodophenylboronic acid]","Light emission at 1 minute, Background",HRP [1]; PIBA 0.01 µg,"12,862"
same,"Light emission at 1 minute, Signal",HRP [1]; PIBA 0.01 µg,"78,419"
same,Signal: Background ratio,HRP [1]; PIBA 0.01 µg,6.1
same,"Light emission at 1 minute, Background",HRP [1]; PIBA 0.1 µg,"13,221"
same,"Light emission at 1 minute, Signal",HRP [1]; PIBA 0.1 µg,"74,487"
same,Signal: Background ratio,HRP [1]; PIBA 0.1 µg,7.1
same,"Light emission at 1 minute, Background",HRP [1]; PIBA 1 µg,"10,282"
same,"Light emission at 1 minute, Signal",HRP [1]; PIBA 1 µg,"324,312"
same,Signal: Background ratio,HRP [1]; PIBA 1 µg,31.5
same,"Light emission at 1 minute, Background",HRP [1]; PIBA 10 µg,"5,517"
same,"Light emission at 1 minute, Signal",HRP [1]; PIBA 10 µg,"540,760"
same,Signal: Background ratio,HRP [1]; PIBA 10 µg,98
same,"Light emission at 1 minute, Background",HRP [1]; PIBA 20 µg,"3,837"
same,"Light emission at 1 minute, Signal",HRP [1]; PIBA 20 µg,"135,065"
same,Signal: Background ratio,HRP [1]; PIBA 20 µg,35.2
"O=C(O)C=Cc1ccc(B(O)O)cc1 [CPA, 4-(2-carboxyethenyl)phenylboronic acid]",Signal (no HRP),HRP [2]; CPA 0.01 µg,0.094
same,Signal (with HRP),HRP [2]; CPA 0.01 µg,0.41
same,Signal: Background ratio,HRP [2]; CPA 0.01 µg,4.4
same,Signal (no HRP),HRP [2]; CPA 0.02 µg,0.09
same,Signal (with HRP),HRP [2]; CPA 0.02 µg,0.46
same,Signal: Background ratio,HRP [2]; CPA 0.02 µg,5.1
same,Signal (no HRP),HRP [2]; CPA 0.05 µg,0.09
same,Signal (with HRP),HRP [2]; CPA 0.05 µg,0.68
same,Signal: Background ratio,HRP [2]; CPA 0.05 µg,7.6
same,Signal (no HRP),HRP [2]; CPA 0.1 µg,0.09
same,Signal (with HRP),HRP [2]; CPA 0.1 µg,1.23
same,Signal: Background ratio,HRP [2]; CPA 0.1 µg,14.2
same,Signal (no HRP),HRP [2]; CPA 0.2 µg,0.08
same,Signal (with HRP),HRP [2]; CPA 0.2 µg,2.37
same,Signal: Background ratio,HRP [2]; CPA 0.2 µg,28.2
same,Signal (no HRP),HRP [2]; CPA 0.5 µg,0.07
same,Signal (with HRP),HRP [2]; CPA 0.5 µg,4.57
same,Signal: Background ratio,HRP [2]; CPA 0.5 µg,63.4
same,Signal (no HRP),HRP [2]; CPA 1.0 µg,0.06
same,Signal (with HRP),HRP [2]; CPA 1.0 µg,5.58
same,Signal: Background ratio,HRP [2]; CPA 1.0 µg,93.0
same,Signal (no HRP),HRP [2]; CPA 10 µg,0.02
same,Signal (with HRP),HRP [2]; CPA 10 µg,2.49
same,Signal: Background ratio,HRP [2]; CPA 10 µg,124.9
same,Signal (no HRP),HRP [2]; CPA 20 µg,0.003
same,Signal (with HRP),HRP [2]; CPA 20 µg,0.88
same,Signal: Background ratio,HRP [2]; CPA 20 µg,43.9
"OB(O)c1ccc(Cl)cc1Cl [Compound 5002, 2,4-dichlorophenylboronic acid]",Signal (no HRP),HRP Type VIA [3]; 5µl of 1mg/ml compound,"16,246"
same,Signal (with HRP),HRP Type VIA [3]; 5µl of 1mg/ml compound,"128,274"
same,Signal: Background ratio,HRP Type VIA [3]; 5µl of 1mg/ml compound,7.9
butaneborinic acid [Compound 5005],Signal (no HRP),HRP Type VIA [3]; 40µl of 1mg/ml compound,"54,389"
same,Signal (with HRP),HRP Type VIA [3]; 40µl of 1mg/ml compound,"65,197"
same,Signal: Background ratio,HRP Type VIA [3]; 40µl of 1mg/ml compound,1.2
"OB(O)c1ccc(Nc2ccc(Cl)cc2)cc1 [Compound 1033, 4-(4'-chloroanilino)phenylboronic acid]",(a) Decrease in background (without HRP with test cpd.),HRP Type VIA [4]; 0.01 mg/ml,Y
same,"(b) Increase in signal (with HRP, with test cpd.)",HRP Type VIA [4]; 0.01 mg/ml,Y
same,(c) Increase in signal: background ratio,HRP Type VIA [4]; 0.01 mg/ml,Y (Column (c) shows whether there was an increase in the signal:background ratio by over 25% of the control value (Y = yes)
same,(d) Signal: Background: ratio (control = with no enhancer),HRP Type VIA [4]; 0.01 mg/ml,4.1 (1.8)
same,(a) Decrease in background (without HRP with test cpd.),HRP Type VIA [4]; 0.1 mg/ml,Y
same,"(b) Increase in signal (with HRP, with test cpd.)",HRP Type VIA [4]; 0.1 mg/ml,Y
same,(c) Increase in signal: background ratio,HRP Type VIA [4]; 0.1 mg/ml,Y (Column (c) shows whether there was an increase in the signal:background ratio by over 25% of the control value (Y = yes)
same,(d) Signal: Background: ratio (control = with no enhancer),HRP Type VIA [4]; 0.1 mg/ml,67.7 (2.8)
same,(a) Decrease in background (without HRP with test cpd.),HRP Type VIA [4]; 1 mg/ml,Y
same,"(b) Increase in signal (with HRP, with test cpd.)",HRP Type VIA [4]; 1 mg/ml,Y
same,(c) Increase in signal: background ratio,HRP Type VIA [4]; 1 mg/ml,Y (Column (c) shows whether there was an increase in the signal:background ratio by over 25% of the control value (Y = yes)
same,(d) Signal: Background: ratio (control = with no enhancer),HRP Type VIA [4]; 1 mg/ml,173.9 (4.5)
